For series [1], the system named is MB49 cells. Put plainly: Nuclear and cytoplasmic accumulation of plasmid DNA by PCR. Conditions: nuclear and cytoplasmic extracts. It is filed as cell-based, murine. As for the experimental part:
Nuclear and cytoplasmic fractionation of transfected cells was carried out using gentle lysis with TNE buffer (10 mM Tris, pH (pH8), 1 mM EDTA, 100 mM NaCl, 1% Igepecal) and left on ice for 10 min followed by centrifugation at 7K for 5 min at 4° C. in a microfuge. The supernatant so produced was labelled the cytoplasmic extract and was transferred to a fresh tube. The nuclear extract were prepared by treatment with a proteinase K digestion (100 mM, NaCl, 10 Mm Tris, pH8, 0.5% SDS 25 mM EDTA and 0.1 mg/ml proteinase K) of the pelleted material overnight at 50° C. Nuclear DNA was extracted with phenol/chloroform twice followed by ethanol precipitation. PCR analysis was carried out as described above.
To determine the localization of DNA following transfection with DOTAP and DMBC, nuclear and cytoplasmic extracts were prepared from transfected cells. The presence of DNA in these extracts was determined using PCR. […] The GADPH gene was used to confirm the presence of nuclear DNA in nuclear extracts and the lack of contamination of cytoplasmic fractions with nuclear DNA.

Series [2] relates to MB49 cells. Put plainly: Proliferation assay ([14C]-thymidine incorporation), toxicity of transfection agents. The series is classed as cell-based, murine. As for the experimental part: Proliferation was assayed by measuring [^14C]-thymidine incorporation. 1×10^4 cells were plated per well in a 96 well flat-bottomed tissue culture plate (Nunc, Rosklide, Denmark) and transfected at optimal conditions as described above for the appropriate length of time (2 h and 24 h exposure), washed and incubated with fresh RPMI 1640 at 37° C. After 32 h, supernatants were removed, and cells were rinsed with 1×PBS. Triplicate wells were incubated with […], [^14]-thymidine (specific activity 56.5 mCi/mmol; Du Pont, Wilmington, Del., USA) for 16 h. The samples were harvested as described in Zhang, Y. et al. (1997) Int. J. Cancer 71:851-7. [^14C]-thymidine incorporation was expressed as a percentage of the incorporation in control cells, which consisted of untransfected cells. The non-parametric Mann-Whitney U test was used to calculate statistical significance. Probability values of p<0.05 were considered statistically significant.
A cell proliferation assay was used to gauge the toxicity of the transfection agents. Relative toxicity was measured by comparing proliferation in transfected and untransfected cells, 48 h after plating. Cells were exposed to the transfection agents for 2 h and 24 h.
(Uptake of a labelled nucleoside into DNA is a usual measure of proliferation.)

The subject of series [3] is urothelial cells of the bladder. Put plainly: Transfection of murine bladders by intravesical instillation.
Procedure: 5-7 week old-female C57BL6 mice were anaesthetized; their bladders were catheterized with 24 G i.v. catheter and flushed with 1×PBS. The DMBC and DNA complex were mixed for 15 min as described above. The final mix was made up to a final volume of 465 μl with 1×PBS for easy instillation and introduced intravesically. Transfection exposure times of 15 min, 30 min, 1 h or 2 h were evaluated. At different time points the bladders were flushed with 1×PBS to remove DNA/DMBC complex. The mice were sacrificed 48 h after treatment. Experiments were done in duplicates.
Cryostat sections of 6 μM in thickness were fixed in 1.25% glutaraldehyde for 10 min at 4° C. followed by incubation with X-gal for 4 h at 37° C. and were counterstained with haematoxylin.
The subject of series [4] is MB49 cells. Put plainly: In vitro transfection efficiency of pCMVlacZ, X-gal staining. The series is classed as cell-based, murine.
The subject of another series is human tumor xenografts. The settings on record: used by itself; cited from earlier work.

As to “1,2-diacyl-3-trimethylammonium propane [DOTAP]”, the “localization of LacZ plasmid DNA” value in the series with MB49 cells [1] is “only found to be in the cytoplasm”. In the series with MB49 cells [2] (2 h exposure), the “14C-thymidine incorporation, transfected vs untransfected cells” value is listed as “no difference”. Also, the “cell proliferative capacity vs untransfected cells” value in the series with MB49 cells [2] (24 h exposure) is given as “reduction in cell proliferative capacity but this was not statistically significant”. For the same compound, the “structure of bladder cells facing the lumen by transmission electron microscopy” value in series [3] (2 h transfection exposure, vs untransfected control bladder) is “did not result in any discernible structural difference”. The “transfection of bladder epithelial cells facing the lumen” value in series [3] (intravesical instillation, mice) is reported as “did not result in efficient transfection”.
With `[Ca+2].[Cl-].[Cl-]` [Calcium chloride], the “ability to transfect MB49 cells” value in the series with MB49 cells [4] (MB49 cells, pCMVlacZ, 2 h) is reported as “Neither calcium chloride (0-40 μg) nor DEAE-Dextran (0-2 μg) nor naked DNA could transfect MB49 cells”. Besides, the Transfection efficiency in the series with MB49 cells [4] (MB49 cells, pCMVlacZ, 2 h, percentage of cells stained blue with X-gal) is 0%.
For the compound methyl-β-cyclodextrin, the “transfection with cyclodextrin lacking cholesterol” value with MB49 cells [4] (methyl-β-cyclodextrin by itself in combination with DOTAP and DNA, murine bladder epithelial cells) is reported as “no transfection of murine bladder epithelial cells”. For the same compound, the anti-tumor effect result with human tumor xenografts is listed as “had an anti-tumor effect”.
